{
  "source": "patent US20070031339A1",
  "about": "“Contrast agents” (priority 2003, published 2007)",
  "origin": "cited, not measured here",
  "conditions": "aqueous solution at 350 mg iodine/ml, 37° C.",
  "data": [
    {"smiles": "C[C@H](O)C(=O)Nc1c(I)c(C(=O)NC(CO)CO)c(I)c(C(=O)NC(CO)CO)c1I", "note": "[lopamidol]", "values": [
      {"measurement": "Viscosity", "result": 7.6, "unit": "mPas"}
    ]}
  ]
}
